Measurements reported in the NIST ThermoML archive (doi:10.1016/j.jct.2012.11.014).
Numbers after ± are expanded uncertainties.

What was measured:
[1] = xn = mol fraction of the nth substance listed; conditions: 101 kPa, Liquid, x2 = 0; for speed of sound: Frequency=2 MHz, Linear variable-path acoustic interferometer; for viscosity: Oscillating disk viscometry; for mass density: Vibrating tube method
[2] = for speed of sound / viscosity / mass density: 101 kPa, Liquid; for speed of sound: Frequency=2 MHz, Linear variable-path acoustic interferometer; for viscosity: Oscillating disk viscometry; for mass density: Vibrating tube method; for Normal melting temperature: Crystal, visual observation

| SMILES | speed of sound ([1]; 298.15 K) | viscosity ([1]; 298.15 K) | mass density ([1]; 298.15 K) | speed of sound ([1]; 303.15 K) | viscosity ([1]; 303.15 K) | mass density ([1]; 303.15 K) | speed of sound ([1]; 308.15 K) | viscosity ([1]; 308.15 K) | speed of sound ([2]; 298.15 K) | viscosity ([2]; 298.15 K) | mass density ([2]; 298.15 K) | speed of sound ([2]; 303.15 K) | viscosity ([2]; 303.15 K) | mass density ([2]; 303.15 K) | speed of sound ([2]; 308.15 K) | viscosity ([2]; 308.15 K) | mass density ([2]; 308.15 K) | speed of sound ([2]; 313.15 K) | viscosity ([2]; 313.15 K) | mass density ([2]; 313.15 K) | other results |
| --- | --- | --- | --- | --- | --- | --- | --- | --- | --- | --- | --- | --- | --- | --- | --- | --- | --- | --- | --- | --- | --- |
| C[S+](C)[O-] [dimethyl sulfoxide] + C[NH+](C)C.O=P([O-])(O)O | 1496 ± 3 m/s | 1.99 ± 0.13 mPa·s | 1095.37 ± 1 kg/m3 | 1472 ± 3 m/s | 1.8 ± 0.11 mPa·s | 1092.41 ± 1 kg/m3 | 1460 ± 3 m/s | 1.65 ± 0.1 mPa·s | – | – | – | – | – | – | – | – | – | – | – | – | mass density ([1]; 308.15 K): 1086.06 ± 1 kg/m3; speed of sound ([1]; 313.15 K): 1442 ± 3 m/s; viscosity ([1]; 313.15 K): 1.54 ± 0.1 mPa·s; mass density ([1]; 313.15 K): 1081.43 ± 1 kg/m3 |
| C[S+](C)[O-] [dimethyl sulfoxide] + CC(=O)[O-].C[NH+](C)C | 1496 ± 3 m/s | 1.99 ± 0.13 mPa·s | 1095.37 ± 1 kg/m3 | 1472 ± 3 m/s | 1.8 ± 0.11 mPa·s | 1092.41 ± 1 kg/m3 | 1460 ± 3 m/s | 1.65 ± 0.1 mPa·s | – | – | – | – | – | – | – | – | – | – | – | – | mass density ([1]; 308.15 K): 1086.06 ± 1 kg/m3; speed of sound ([1]; 313.15 K): 1442 ± 3 m/s; viscosity ([1]; 313.15 K): 1.54 ± 0.1 mPa·s; mass density ([1]; 313.15 K): 1081.43 ± 1 kg/m3 |
| C[S+](C)[O-] [dimethyl sulfoxide] + C[NH+](C)C.O=S(=O)([O-])O | 1496 ± 3 m/s | 1.99 ± 0.13 mPa·s | 1095.37 ± 1 kg/m3 | 1472 ± 3 m/s | 1.8 ± 0.11 mPa·s | 1092.41 ± 1 kg/m3 | 1460 ± 3 m/s | 1.65 ± 0.1 mPa·s | – | – | – | – | – | – | – | – | – | – | – | – | mass density ([1]; 308.15 K): 1086.06 ± 1 kg/m3; speed of sound ([1]; 313.15 K): 1442 ± 3 m/s; viscosity ([1]; 313.15 K): 1.54 ± 0.1 mPa·s; mass density ([1]; 313.15 K): 1081.43 ± 1 kg/m3 |
| C[NH+](C)C.O=P([O-])(O)O [trimethylammonium dihydrogen phosphate] | – | – | – | – | – | – | – | – | 1672 ± 3 m/s | 7.64 ± 0.52 mPa·s | 1353.61 ± 1.1 kg/m3 | 1660 ± 3 m/s | 6.46 ± 0.44 mPa·s | 1350.62 ± 1.1 kg/m3 | 1661 ± 3 m/s | 5.61 ± 0.37 mPa·s | 1347.59 ± 1.1 kg/m3 | 1664 ± 3 m/s | 5.07 ± 0.32 mPa·s | 1344.52 ± 1.1 kg/m3 | Normal melting temperature [2]: 116.00 ± 1 °C |
| CC(=O)[O-].C[NH+](C)C [trimethylammonium acetate] | – | – | – | – | – | – | – | – | 1544 ± 3 m/s | 2.76 ± 0.18 mPa·s | 1053.85 ± 1 kg/m3 | 1514 ± 3 m/s | 2.37 ± 0.16 mPa·s | 1049.87 ± 1 kg/m3 | 1508 ± 3 m/s | 2.06 ± 0.14 mPa·s | 1045.81 ± 1 kg/m3 | 1490 ± 3 m/s | 1.83 ± 0.12 mPa·s | 1041.7 ± 1 kg/m3 | – |
| C[S+](C)[O-] [dimethyl sulfoxide] | – | – | – | – | – | – | – | – | 1496 ± 3 m/s | 1.99 ± 0.13 mPa·s | 1095.37 ± 1 kg/m3 | 1472 ± 3 m/s | 1.8 ± 0.11 mPa·s | 1092.41 ± 1 kg/m3 | 1460 ± 3 m/s | 1.65 ± 0.1 mPa·s | 1086.06 ± 1 kg/m3 | 1442 ± 3 m/s | 1.54 ± 0.1 mPa·s | 1081.43 ± 1 kg/m3 | – |
| C[NH+](C)C.O=S(=O)([O-])O [trimethylammonium hydrogen sulfate] | – | – | – | – | – | – | – | – | 1564 ± 3 m/s | 5.1 ± 0.33 mPa·s | 1467.58 ± 1.2 kg/m3 | 1560 ± 3 m/s | 4.48 ± 0.29 mPa·s | 1463.57 ± 1.2 kg/m3 | 1556 ± 3 m/s | 3.94 ± 0.27 mPa·s | 1463.5 ± 1.2 kg/m3 | 1552 ± 3 m/s | 3.16 ± 0.25 mPa·s | 1455.63 ± 1.2 kg/m3 | Normal melting temperature [2]: 129.00 ± 1 °C |
